Test results reported in paper PMC11219871, “Epigenetic-based differentiation therapy for Acute Myeloid Leukemia” (Nature Communications, 2024).

Assays:
HDAC1 = HDAC1 (Homo sapiens, UniProt Q13547); assay: HDAC enzymatic assay, fluorescence-labeled substrate; assay type: biochemical; settings: read-out: HDAC1 IC50
HL-60 [1] = assay: Cell proliferation assay: GI50; assay type: cell-based, human; settings: 48 h; read-out: HL-60 GI50
Procedure: Cell proliferation was analyzed using the CellTiter 96 Aqueous One Solution Cell Proliferation Assay (Promega, Madison, WI). This is a colorimetric method for determining the number of viable cells in proliferation. For the assay, suspension cells were cultured in triplicate at a density of 1 × 10^6 cells/mL in 96-well plates (100.000 cells/well, 100 µL/well), using only the 60 inner wells to avoid any border effects. […] Then, the cells were incubated with 100 μL/well of medium and 20 μL/well of CellTiter 96 Aqueous One Solution reagent for 1–3 h. […] The background absorbance was measured in wells with only cell line medium and solution reagent. First, the average of the absorbance from the control wells was subtracted from all other absorbance values. Data were calculated as the percentage of total absorbance of treated cells/absorbance of non-treated cells. The GI50 values of the different compounds were determined using non-linear regression plots made with GraphPad Prism v5 software.

HDAC6 = biological target: T1, HDAC6 (Homo sapiens, UniProt Q9UBN7); assay: HDAC enzymatic assay, fluorescence-labeled substrate; assay type: biochemical; settings: read-out: HDAC6 IC50
T1 sequence (Q9UBN7 1-1215): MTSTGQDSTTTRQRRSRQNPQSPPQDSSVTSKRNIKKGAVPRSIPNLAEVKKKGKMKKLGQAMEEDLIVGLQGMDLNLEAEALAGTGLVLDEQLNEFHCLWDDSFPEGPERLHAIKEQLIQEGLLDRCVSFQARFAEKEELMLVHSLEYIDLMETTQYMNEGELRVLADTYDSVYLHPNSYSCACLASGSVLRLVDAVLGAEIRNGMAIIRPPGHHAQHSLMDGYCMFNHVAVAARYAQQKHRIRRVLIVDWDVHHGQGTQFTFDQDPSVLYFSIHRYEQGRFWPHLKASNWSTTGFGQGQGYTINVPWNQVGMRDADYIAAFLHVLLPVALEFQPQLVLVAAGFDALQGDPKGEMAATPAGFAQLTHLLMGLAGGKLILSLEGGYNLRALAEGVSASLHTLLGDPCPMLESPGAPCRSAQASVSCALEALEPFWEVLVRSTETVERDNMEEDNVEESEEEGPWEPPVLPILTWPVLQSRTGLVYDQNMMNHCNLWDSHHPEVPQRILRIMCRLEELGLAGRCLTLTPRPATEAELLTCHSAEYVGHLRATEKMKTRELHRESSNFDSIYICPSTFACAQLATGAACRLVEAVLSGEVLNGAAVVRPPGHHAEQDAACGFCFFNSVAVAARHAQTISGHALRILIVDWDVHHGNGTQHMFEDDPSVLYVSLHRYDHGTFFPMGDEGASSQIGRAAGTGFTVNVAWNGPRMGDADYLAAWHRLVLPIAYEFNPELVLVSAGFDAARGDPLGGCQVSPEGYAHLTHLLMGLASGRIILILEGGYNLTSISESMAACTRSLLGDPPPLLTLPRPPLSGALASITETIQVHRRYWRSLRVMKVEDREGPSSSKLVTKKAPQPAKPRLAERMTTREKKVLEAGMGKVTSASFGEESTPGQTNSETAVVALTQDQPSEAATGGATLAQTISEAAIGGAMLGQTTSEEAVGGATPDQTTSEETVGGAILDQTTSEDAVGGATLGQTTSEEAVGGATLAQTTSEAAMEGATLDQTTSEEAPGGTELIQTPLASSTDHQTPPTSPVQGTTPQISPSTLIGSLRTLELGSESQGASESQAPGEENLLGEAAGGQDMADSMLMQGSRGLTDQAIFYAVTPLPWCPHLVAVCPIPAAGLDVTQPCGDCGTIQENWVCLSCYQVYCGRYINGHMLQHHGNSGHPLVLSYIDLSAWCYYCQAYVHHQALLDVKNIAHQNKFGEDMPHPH

HL-60 [2] = assay: Differentiation-apoptosis assay, CD11b / annexin-V / Sytox Green / myeloid markers flow cytometry; assay type: cell-based, human; settings: HL-60, daily 25% GI50, 48 h
Procedure: Next, the cells were washed twice with phosphate-buffered saline (PBS) and resuspended in 1X Binding Buffer at a concentration of 1 × 10^6 cells/mL. […] Finally, after the addition of 400 µL of 1X Binding Buffer to each tube, samples were collected on a BD FACSCanto flow cytometer (Becton Dickinson, San Jose, CA, USA) and analyzed using FlowJo software.
Then, 1 million cells (volume of 250 µL) were added and incubated for 30 min at room temperature in darkness. After 10 min incubation at room temperature with 2 mL of FACSLysing 1X, cells were centrifuged at 540 g for 5 min and washed twice with FACSBuffer. Finally, after centrifugation at 540 g for 5 min cells were resuspended in FACSBuffer.

Chain of HDAC1 (Q13547 whole entry): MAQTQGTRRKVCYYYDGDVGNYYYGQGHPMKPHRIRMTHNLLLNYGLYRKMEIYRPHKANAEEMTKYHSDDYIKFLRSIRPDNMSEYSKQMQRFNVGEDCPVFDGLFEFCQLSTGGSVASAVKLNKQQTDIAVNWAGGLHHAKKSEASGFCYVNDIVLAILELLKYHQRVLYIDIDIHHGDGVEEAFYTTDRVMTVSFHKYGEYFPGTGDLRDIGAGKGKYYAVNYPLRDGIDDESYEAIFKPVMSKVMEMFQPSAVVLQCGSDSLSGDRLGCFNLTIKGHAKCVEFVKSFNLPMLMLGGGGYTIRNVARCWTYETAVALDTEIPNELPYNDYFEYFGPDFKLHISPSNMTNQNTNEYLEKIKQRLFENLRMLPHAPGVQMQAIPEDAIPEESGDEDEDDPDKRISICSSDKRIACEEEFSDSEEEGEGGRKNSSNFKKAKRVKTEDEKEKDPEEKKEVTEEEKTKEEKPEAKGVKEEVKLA

IC50 (HDAC1): > 20 µM
GI50 (HL-60 [1]): 2.9 µM
IC50 (HDAC6): > 20 µM
Compound: COc1cc2c(NC3CCN(C)CC3)cc(-c3ccc(C)o3)nc2cc1OCCCN1CCCC1 [CM-272]
Annexin V (%) Replicate 1 (HL-60 [2]): 1.02%
Annexin V (%) Replicate 2 (HL-60 [2]): 1.64%
Annexin V (%) Replicate 3 (HL-60 [2]): 1.88%
CD11b (%) Replicate 1 (HL-60 [2]): 1.50%
CD11b (%) Replicate 2 (HL-60 [2]): 0.87%
CD11b (%) Replicate 3 (HL-60 [2]): 0.44%
Annexin V + (%) (HL-60 [2]; mean of three): 1.51%
CD11b+ (%) (HL-60 [2]; mean of three): 0.94%
